This is an account of results in US20220281825A1 (priority 2016, published 2022).

For data set [1] the following is noted: guinea pig, 1 h, pH 7.4.
Another data set deals with LASV-p. The data set can be described thus: organism not typed. Format: cell-based, Lassa (LASV). Conditions: Vero, 24 h, read-out: LASV-p EC50 (nM).
In data set [2] the test system is native replicating Tacaribe (TCRV) virus. Briefly: microbe, parasite or virus in culture. Format: cell-based. Conditions: for EC50: Mammarenavirus tacaribeense, Vero, 120 h, read-out: TCRV EC50 uM.
The test system of the next data set is VSV-p. The data set can be described thus: microbe, parasite or virus in culture. Format: cell-based. Conditions: Vesicular stomatitis virus, Vero, 24 h, read-out: VSV-p EC50 (nM).
In another data set the test system is LCMV. Briefly: microbe, parasite or virus in culture. Format: cell-based, lymphocytic choriomeningitis virus (LCMV). Conditions: for EC90: Mammarenavirus choriomeningitidis, read-out: LCMV EC90 uM.
For data set [3] the following is noted: 1 h, pH 7.4.
The conditions of data set [4]: guinea pig, in vivo, 10 mg/kg.
In a further data set the test system is LASV. The data set can be described thus: organism not typed. Format: cell-based, Lassa (LASV). Conditions: for EC50: 120 h, read-out: LASV EC50 uM.
The test system of another data set is JUNV. Briefly: organism not typed. Conditions: for EC50: 120 h, read-out: JUNV EC50 uM. Format: cell-based, Junin (JUNV).
For data set [5] the following is noted: 1 h, pH 7.4. The source holds these as a separate data set.
For another data set, the system named is MACV-p. The data set can be described thus: organism not typed. Format: cell-based, Machupo (MACV). Conditions: Vero, 24 h, read-out: MACV-p EC50 (nM).
For data set [6] the following is noted: 1 h, pH 7.4. This is another data set of the same source.
In the next data set the test system is TCRV-p. Briefly: organism not typed. Format: cell-based. Conditions: Vero, 24 h, read-out: TCRV-p EC50 (nM).
For a further data set, the system named is GTOV-p. The data set can be described thus: organism not typed. Format: cell-based, Guanarito (GTOV). Conditions: Vero, 24 h, read-out: GTOV-p EC50 (nM).
Another data set relates to JUNV-p. The data set can be described thus: organism not typed. Conditions: Vero, 24 h, read-out: JUNV-p EC50 (nM). Format: cell-based, Junin (JUNV).
The next data set in a line: in vitro. Conditions: African green monkey.
A further data set is described as follows: in vivo. Conditions: guinea pig, po, 10 mg/kg.
For data set [7] the following is noted: 1 h, pH 7.4. This is another data set of the same source.
In a further data set the target is hERG channel (Homo sapiens, UniProt Q12809). Conditions: pH 7.4.
Chain of hERG channel (Q12809 whole entry): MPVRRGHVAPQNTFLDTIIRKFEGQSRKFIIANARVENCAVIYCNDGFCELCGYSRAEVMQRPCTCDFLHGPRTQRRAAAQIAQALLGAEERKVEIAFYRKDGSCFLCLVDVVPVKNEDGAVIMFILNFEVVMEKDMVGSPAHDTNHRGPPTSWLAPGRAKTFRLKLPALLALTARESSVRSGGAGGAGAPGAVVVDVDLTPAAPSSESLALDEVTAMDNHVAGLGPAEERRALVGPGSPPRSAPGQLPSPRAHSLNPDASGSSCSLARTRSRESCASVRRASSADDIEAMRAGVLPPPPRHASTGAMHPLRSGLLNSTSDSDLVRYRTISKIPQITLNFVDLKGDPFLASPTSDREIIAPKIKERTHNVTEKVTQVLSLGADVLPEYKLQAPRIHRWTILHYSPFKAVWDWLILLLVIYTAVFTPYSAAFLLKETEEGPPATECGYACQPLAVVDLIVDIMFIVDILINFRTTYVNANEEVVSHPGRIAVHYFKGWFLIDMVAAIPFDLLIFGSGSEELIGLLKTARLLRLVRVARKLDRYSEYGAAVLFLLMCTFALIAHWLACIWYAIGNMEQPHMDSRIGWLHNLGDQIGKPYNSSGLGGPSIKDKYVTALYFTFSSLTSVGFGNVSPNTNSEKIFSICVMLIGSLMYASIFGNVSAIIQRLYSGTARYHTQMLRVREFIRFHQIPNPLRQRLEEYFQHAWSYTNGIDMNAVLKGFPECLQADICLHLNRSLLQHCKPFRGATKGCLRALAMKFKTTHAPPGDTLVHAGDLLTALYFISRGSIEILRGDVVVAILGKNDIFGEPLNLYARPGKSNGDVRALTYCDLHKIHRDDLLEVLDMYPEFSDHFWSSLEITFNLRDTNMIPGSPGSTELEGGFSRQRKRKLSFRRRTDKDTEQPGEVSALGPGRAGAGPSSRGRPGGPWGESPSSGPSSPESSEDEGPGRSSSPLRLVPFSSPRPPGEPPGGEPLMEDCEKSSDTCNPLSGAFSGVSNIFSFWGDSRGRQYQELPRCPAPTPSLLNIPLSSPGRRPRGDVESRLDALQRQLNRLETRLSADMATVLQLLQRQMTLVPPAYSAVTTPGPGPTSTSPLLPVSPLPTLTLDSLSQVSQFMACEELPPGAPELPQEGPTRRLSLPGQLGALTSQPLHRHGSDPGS
For data set [8] the following is noted: 1 h, pH 7.4. This is another data set of the same source.

The EC50 is the midpoint of the concentration-response curve. The EC90 is the concentration at which the effect reaches the 90% level. For orientation: Cmax means the peak of the concentration-time curve. What is called Tmax is the time from dosing to the highest level. By half-life is commonly meant the time in which the quantity being followed falls by half. Take `CC(C)Oc1ccc(-n2cnc3ccc(-c4ccc(C(C)(C)O)cc4)cc32)cc1` [Example A17, 2-(4-{1-[4-(propan-2-yloxy)phenyl]-1H-1,3-benzodiazol-6-yl}phenyl)propan-2-ol]: the “Percent parent compound remaining at 60 minutes in liver microsomes, Guinea” value (from here on “Percent parent compound remaining … Guinea”) in data set [1] stood at 62%. In addition, the EC50 was 1.1 nM in the data set with LASV-p; 0.023 µM in [2]; more than 1000 nM in the data set with VSV-p; 0.06 µM in the data set with LASV; 0.115 µM in the data set with JUNV; 0.2 nM in the data set with MACV-p. In addition, the EC50 in the data set on TCRV-p was 0.6 nM; with GTOV-p, 0.52 nM; in the data set with JUNV-p, 0.2 nM. The “TCRV SI50” value in data set [2] turned out to be 609. Further, in the data set with LCMV, the “LCMV SI90” value was 12. Also, in the data set on LCMV, the concentration for an effect of 90% (EC90) was determined as 0.71 µM. Also, the “Percent parent compound remaining at 60 minutes in liver microsomes, Rat” value (“Percent parent compound remaining … Rat” for short) in data set [3] turned out to be 86%. For the same compound, the oral exposure result in data set [4] was “demonstrated oral exposure”. Further, the “T ½” value in data set [4] (po) lay within 4 to 6 h. The “LASV SI” value with LASV is given as 249. The “JUNV SI” value in the data set with JUNV is 82. In addition, the “Percent parent compound remaining at 60 minutes in liver microsomes, Human” value (from here on “Percent parent compound remaining … Human”) in data set [5] is listed as 69%. For the same compound, the “Percent parent compound remaining at 60 minutes in liver microsomes, Monkey” value (“Percent parent compound remaining … Monkey” below) in data set [6] worked out at 7%. In addition, the CC50 in the data set “in vitro” was determined as 5810 nM. The same compound displayed a Cmax in the data set “in vivo” of 639 ng/mL. Moreover, the Tmax in “in vivo” amounted to 1 h. Moreover, the half-life in “in vivo” fell in the range of 4 to 6 h. In addition, in [7], the “Percent parent compound remaining at 60 minutes in liver microsomes, Mouse” value (“Percent parent compound remaining … Mouse” below) was determined as 44%.

For `CC(C)Oc1ccc(-c2cnc3ccc(-c4ccc(C(C)(C)O)cc4)cn23)cc1` [Example C1, 2-(4-{3-[4-(propan-2-yloxy)phenyl]imidazo[1,2-a]pyridin-6-yl}phenyl)propan-2-ol], the “Percent parent compound remaining … Guinea” value in data set [1] turned out to be 42%. Also, the EC50 in the data set with LASV-p was 0.59 nM; in [2] it was 0.003 µM; with VSV-p it was more than 1000 nM; in the data set with LASV it was 0.025 µM; in the data set with JUNV, 0.055 µM; with MACV-p it was 0.7 nM. In addition, the half-maximal effective concentration (EC50) in the data set on TCRV-p is 1.45 nM; in the data set with GTOV-p it was 0.08 nM; with JUNV-p, 0.82 nM. Moreover, the “TCRV SI50” value in [2] is on record as 2500. Also, the “LCMV SI90” value in the data set with LCMV amounted to 37. The EC90 in the data set with LCMV stood at 0.82 µM. The “Percent parent compound remaining … Rat” value in data set [3] was 77%. For the same compound, the “LASV SI” value in the data set with LASV is recorded as 921. The “JUNV SI” value with JUNV is 352. The “Percent parent compound remaining … Human” value in [5] amounted to 76%. Moreover, the “hERG % Inhibition” value at hERG channel was determined as 55%. For the same compound, in [6], the “Percent parent compound remaining … Monkey” value is 16%. Besides, in the data set “in vitro”, the CC50 was determined as 7520 nM. Moreover, in data set [7], the “Percent parent compound remaining … Mouse” value is recorded as 22%.

Consider `Cc1c(-c2ccc(OC(C)C)cc2)ccc2ncc(-c3ccc(OC(C)C)cc3)n12` [Example C51, 5-methyl-3,6-bis[4-(propan-2-yloxy)phenyl]imidazo[1,2-a]pyridine], for which the “Percent parent compound remaining … Guinea” value in [1] stood at 95%. In addition, the concentration giving a half-maximal response (EC50) in the data set with LASV-p is 0.31 nM; with MACV-p it was 0.13 nM; with TCRV-p it was 0.37 nM; in the data set on GTOV-p, 0.21 nM; in the data set with JUNV-p, 0.15 nM. In addition, the “Percent parent compound remaining … Rat” value in data set [3] is 75%. Further, the “Percent parent compound remaining … Human” value in [5] came to 100%. In addition, the “hERG % Inhibition” value at hERG channel was found to be 49%. Also, the “Percent parent compound remaining … Monkey” value in data set [6] was 21%. This compound also gave a CC50 in “in vitro” of 4190 nM. Further, the “Percent parent compound remaining at 60 minutes in liver microsomes, Dog” value in data set [8] is listed as 82%. For the same compound, in [7], the “Percent parent compound remaining … Mouse” value came to 92%.
